In PubChem BioAssay (NCI):
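Five concentrations, 48 hours, 96-well plates. Abbreviation: GI50, concentration required for 50% inhibition of growth. TGI: concentration producing complete growth inhibition.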

Columns and labels:
Experiment in all cases: NCI-60 cell line screen, 48 h
BT-549 breast = test system: BT-549 breast
DMS 273 small cell lung = test system: DMS 273 small cell lung
HOP-18 NSCLC = test system: HOP-18 NSCLC
KM20L2 colon = test system: KM20L2 colon
LXFL 529 NSCLC = test system: LXFL 529 NSCLC
M19-MEL melanoma = test system: M19-MEL melanoma
SNB-78 CNS = test system: SNB-78 CNS
DMS 114 small cell lung = test system: DMS 114 small cell lung
MDA-N = test system: MDA-N

| SMILES | GI50 (BT-549 breast) [µM] | TGI (BT-549 breast) [µM] | TGI (DMS 273 small cell lung) [µM] | TGI (HOP-18 NSCLC) [µM] | TGI (KM20L2 colon) [µM] | TGI (LXFL 529 NSCLC) [µM] | TGI (M19-MEL melanoma) [µM] | TGI (SNB-78 CNS) [µM] | TGI (DMS 114 small cell lung) [µM] | TGI (MDA-N) [µM] |
| --- | --- | --- | --- | --- | --- | --- | --- | --- | --- | --- |
| Cc1ccccc1NC(=O)N/C(N)=N/c1nc(-c2cccc([N+](=O)[O-])c2)cs1 | 2.16 | 5.37 | – | – | – | – | – | – | – | – |
| CC(C)=CCCC(C)c1ccc(C)c2c1OCN(CC1CCNCC1)C2 (stereo unspecified) | 16.9 | 41.6 | – | – | – | – | – | – | – | – |
| CCN1CCN(C(=O)[C@]23CC[C@@H](C)[C@H](C)[C@@H]2C2=CC[C@@H]4[C@@]5(C)C/C(=C/c6ccncc6)C(=O)C(C)(C)[C@@H]5CC[C@@]4(C)[C@]2(C)CC3)CC1 | 1.78 | 3.78 | – | – | – | – | – | – | – | – |
| O=[N+]([O-])c1cccc(/C=N\NS(=O)(=O)c2ccc(Cl)cc2)c1O | – | – | > 100 | > 100 | > 100 | > 100 | > 100 | > 100 | – | – |
| COc1cc2c(cc1OCCCOc1cc3c(cc1OC)C(=O)N1C[C@H](F)C[C@H]1C=N3)N=C[C@@H]1C[C@@H](F)CN1C2=O | 3.36 | 17.9 | – | – | – | – | – | – | – | – |
| CC[C@@H]1OC2(C)CC(S(=O)(=O)c3ccccc3O)CC1O2 (stereo partly specified) | – | – | > 100 | > 100 | > 100 | > 100 | > 100 | – | – | – |
| COC(=O)c1s/c(=N\C(=S)N(C)C)n(-c2ccccc2)c1C(=O)OC | – | – | > 100 | – | > 100 | – | > 100 | > 100 | > 100 | – |
| Cc1c(NC(=O)C(C)(C)Br)c(=O)oc2c(C)c3occc(=O)c3cc12 | – | – | > 100 | – | > 100 | > 100 | – | – | > 100 | – |
| NOCC(=O)O | > 100 | > 100 | – | – | – | – | – | – | – | – |
| O=C(Nc1cc(Cl)c(Cl)cc1Cl)C(=O)C1C=CCS1(=O)=O (stereo unspecified) | – | – | > 100 | > 100 | > 100 | > 100 | > 100 | > 100 | > 100 | – |
| COc1ccc(NC(=O)C(=O)C(C(=O)c2ccccc2)C2OC(=O)c3ccccc32)c([N+](=O)[O-])c1 (stereo unspecified) | – | – | > 100 | > 100 | > 100 | > 100 | > 100 | > 100 | > 100 | – |
| CC1C[C@@]2(c3ccccc3)C(=O)CCC[C@H]2N1 (stereo partly specified) | – | – | > 100 | – | > 100 | > 100 | > 100 | > 100 | > 100 | – |
| C=C1C(=O)O[C@H]2[C@H]1CC/C(CNC(=O)c1cc3cc(OC)ccc3[nH]1)=C\CC[C@@]1(C)O[C@@H]21 | 1.44 | 3.42 | – | – | – | – | – | – | – | – |
| CC1=C(C(=O)Nc2ccccc2C)C(c2ccc(Cl)c(Cl)c2)C(C(=O)Nc2ccccc2C)=C(C)N1 | – | – | 41.1 | 69.4 | 34.8 | 43.4 | 45.2 | > 100 | 41 | – |
| COc1cc(/C=C(\C#N)C(=O)c2ccccc2)ccc1OCc1ccccc1 | – | – | – | – | > 100 | – | > 100 | > 100 | > 100 | – |
| CC(C)CS(=O)(=O)/C(=C(\c1ccc(Br)cc1)S(=O)(=O)CC(C)C)c1ccc(Br)cc1 | – | – | > 100 | > 100 | > 100 | > 100 | > 100 | > 100 | – | – |
| NC(=O)C(=Cc1ccc(C(O)P(=O)(O)O)cc1)C(N)=O (stereo unspecified) | – | – | > 100 | > 100 | > 100 | > 100 | > 100 | > 100 | > 100 | – |
| Cc1cc(Cl)ccc1NC(=O)CCCC(=O)C1CCCC1=O (stereo unspecified) | – | – | > 100 | > 100 | > 100 | > 100 | > 100 | > 100 | > 100 | – |
| CCOC(=O)NC(=O)c1cn(CC(=O)NCC(=O)NCC(=O)NCCCN2CCN(CCCNC(=O)CNC(=O)CNC(=O)Cn3cc(C(=O)NC(=O)OCC)c(=O)[nH]c3=O)CC2)c(=O)[nH]c1=O | – | – | > 100 | > 100 | > 100 | > 100 | > 100 | > 100 | > 100 | – |
| COc1ccc(CN(C)c2ccc(CO)c(Cl)c2)cc1 | 19.8 | 73.7 | – | – | – | – | – | – | – | – |
| O=C1c2ccccc2C(=O)N1CCCSc1ccccc1 | – | > 100 | – | – | – | – | – | – | – | > 100 |
| CCCCCCCCC[C@@H]1CC(=O)OCC2OC(O[C@H](CCCCCCCCC)CC(=O)OCC3OC(O[C@H](CCCCCCCCC)CC(=O)OCC4OC(O1)C(O)C(O)C4O)C(O)C(O)C3O)C(O)C(O)C2O (stereo partly specified) | – | – | 21.6 | 0.0797 | 19.7 | 18 | 16.5 | 34.6 | 24 | – |
| COc1cc(C(=O)/C(C)=C/c2c[nH]c3ccccc23)cc(OC)c1OC | 0.00583 | – | – | – | – | – | – | – | – | – |
| CC(=O)CC(=O)Nc1ccc2ccccc2c1 | – | > 100 | – | – | – | – | – | – | – | > 100 |
| ClCc1cccc(Cn2cnc3c(NC45CC6CC(CC(C6)C4)C5)ncnc32)c1 | 12.8 | 29.4 | – | – | – | – | – | – | – | – |
| Cc1[nH]c2ccccc2c1C1Cc2ccccc2N1C(=O)/C=C\C(=O)O (stereo unspecified) | – | – | > 100 | – | > 100 | 41.1 | > 100 | > 100 | 64.4 | – |
| COc1ccc([N+](=O)[O-])c2c(NCCCN(C)C)c3ccccc3nc12 | – | 2.83 | – | – | – | – | – | – | – | 1.55 |
| COc1cc(OC)cc(C2CC(=O)Nc3c2c(C)nn3-c2nc3ccccc3[nH]2)c1 (stereo unspecified) | 2.46 | 7.86 | – | – | – | – | – | – | – | – |
| COc1ccc([N+]2=NC(c3ccc([N+](=O)[O-])cc3)=NN(c3ccccc3)C2)cc1 | – | – | > 100 | – | > 100 | > 100 | – | > 100 | > 100 | – |
